Laboratory results reported in US20260242824A1, “ONCOLYTIC VIRUSES TO TREAT BRAIN CANCER” (priority 2023, published 2026).

Legend:
[1] = tested on: STAT3; details: 2 μM in dimethyl sulfoxide; reported in ref [40]; cited from earlier work
[2] = tested on: Tnfsf10 expression in astrocytes; assay: Tnfsf10 mRNA (qPCR) in stimulated primary mouse astrocytes; type: cell-based
Protocol: Isolation, culture, and stimulation of primary mouse astrocytes. Primary murine astrocytes were isolated from neonatal brains as previously described. Briefly, wild-type mouse pups aged 1-3 days were cryoanesthetized and decapitated. Whole brains were extracted, and 2-3 brains pooled per culture. After centrifugation for 5 min at 500×g, tissues were resuspended in 5 mL pre-warmed 0.25% Trypsin-EDTA (Thermo Fisher Scientific, 25200-072) and incubated at 37° C. for 10 min, followed by addition of culture medium to stop the dissociation reaction, and mechanical disaggregation by strong pipetting. The suspension was then filtered through a 70 μm nylon strainer and centrifuged 5 min at 500×g. Finally, the suspension was seeded onto T75 flasks (Falcon, 353136) that were coated at room temperature for 10 min with poly-L-lysine (Sigma-Aldrich, P4707). Mixed glial cultures were grown for at least 10 days prior to enrichment of astrocytes per the following method. […]
For quantitative analysis of gene transcription from cultured cells cellular RNA was extracted by use of RNeasy Kit (Qiagen, 74004). […] Quantitative measurement of gene expression was performed by qPCR using Taqman Fast Universal PCR Master Mix (Life Technologies, 4367846), MicroAmp Optical 384 well plates (Thermo Fisher Scientific, 43-098-49) and a ViiA 7 Real-Time PCR System (Applied Biosciences). […]

O=C(Nc1ccc([N+](=O)[O-])cc1Cl)c1cc(Cl)ccc1O [BAY2353, Niclosamide]
effectiveness and cytotoxicity at the concentration used [1]: effective but not cytotoxic | TCM-induced expression of Tnfsf10 transcripts upon STAT inhibition ([2]; GL261 TCM-stimulated astrocytes, inhibitor 2 μM, vs vehicle): fully abrogated

B1: Recombinant murine IL-11: recombinant murine IL-11 used to stimulate astrocytes at 50 ng/ml (protein, UniProt P47873 22-199, looked up)
Interleukin-11: PGPPAGSPRVSSDPRADLDSAVLLTRSLLADTRQLAAQMRDKFPADGDHSLDSLPTLAMSAGTLGSLQLPGVLTRLRVDLMSYLRHVQWLRRAGGPSLKTLEPELGALQARLERLLRRLQLLMSRLALPQAAPDQPVIPLGPPASAWGSIRAAHAILGGLHLTLDWAVRGLLLLKTRL
Tnfsf10 expression upon recombinant murine IL-11 alone ([2]; astrocytes, 50 ng/ml, levels comparable to GL261 TCM, vs control medium): sufficient to induce Tnfsf10 expression
